Assay results from patent US5547940A, “Method for stimulating proliferation of colon cells using POMC76-103” (Ludwig Institute for Cancer Research, priority 1994, dated 1996).
Values joined by “and” are separate entries in the source; they are usually repeats but may differ in a detail not shown here. Equal values may be shown once. Read-outs that look alike come from different tables or passages of the source. Values belong to the compound of their own block, whether it stands above or below them. Peptide text beside a SMILES is read from it.

Tests used:
[1] = tested on: LIM 1215 cells
Description: The material was synthesized, using art recognized techniques, and was then used in a mitogenic assay on LIM 1215 cells, following Nice et al., J. Biol. Chem. 266: 14425-14430 (1991), which is incorporated by reference in its entirety.

[2] = tested on: colonic crypt cells; test: Growth factors together with LIM 2537 conditioned medium on colonic crypt cells (synergism); format: cell-based; conditions: tested on murine colonic crypt cells
Experimental: In another set of experiments, human colonic crypt cells were tested with conditioned medium from LIM 2537, together with different growth factors.

[3] = tested on: LIM 1215 cells; test: Colony formation of LIM 1215 cells in semi-solid agar; format: cell-based, human; conditions: rhEGF 10 ng/ml alone
Experimental: Colony formation using various factors was studied. Cells of cell line LIM 1215 were cloned in semi-solid agar (0.3%) following Whitehead et al., Int. J. Canc. 46:858-863 (1990). Briefly, the cells were trypsinized and resuspended in RPMI 1640 plus 5% FCS. Cells in the suspension were counted and then resuspended in a mixture of 0.3% agar in RPMI 1640 plus 10% FCS (40° C.), at a concentration of 10^4 cells per ml. The mixture was plated in 1.5 volumes in 35 mm^2 dishes, and allowed to set. Plates were then incubated at 37° C. in 5% CO2 and 100% humidity for 14 days. A solution of 0.1% crystal violet was aded to the plates, and colonies of more than 40 cells were counted.
Conditioned medium was prepared by incubating confluent monolayers of colon carcinoma cell lines with fresh RPMI 1640 plus 5% FCS for 48 hours. Medium was then removed, sterilized by filtration, and added to the agar plates at a final concentration of 10% (v/v). […] See Whitehead, supra.
The effect of the POMC76-103, alone and combination with epidermal growth factor (EGF) was investigated. The peptide and recombinant human EGF ("rhEGF") were tested alone, and combined, in colony formation assays as described supra.

EC50 [1]: ~0.075 nM
Compound: CSCC[C@H](NC(=O)[C@@H](NC(=O)[C@H](Cc1ccc(O)cc1)NC(=O)[C@@H](N)CCCCN)C(C)C)C(=O)NCC(=O)N[C@@H](Cc1c[nH]cn1)C(=O)N[C@@H](Cc1ccccc1)C(=O)N[C@@H](CCCNC(=N)N)C(=O)N[C@@H](Cc1c[nH]c2ccccc12)C(=O)N[C@@H](CC(=O)O)C(=O)N[C@@H](CCCNC(=N)N)C(=O)N[C@@H](Cc1ccccc1)C(=O)NCC(=O)N[C@@H](CCCNC(=N)N)C(=O)N[C@@H](CCCNC(=N)N)C(=O)N[C@@H](CC(N)=O)C(=O)NCC(=O)N[C@@H](CO)C(=O)N[C@@H](CO)C(=O)N[C@@H](CO)C(=O)N[C@@H](CO)C(=O)NCC(=O)N[C@H](C(=O)NCC(=O)NCC(=O)N[C@@H](C)C(=O)N[C@@H](C)C(=O)N[C@@H](CCC(N)=O)C(=O)O)C(C)C [POMC76-103] (H-KYVMGHFRWDRFGRRNGSSSSGVGGAAQ-OH)

EC50 ([1]; mitogenic assay, LIM 1215 cells): 0.05 nM
Compound: EGF: epidermal growth factor
synergism with the LIM 2537 conditioned medium [2]: None of these factors showed any synergism
stimulation index ([1]; LIM 1215 cells, FIGS. 16A/16B): 8 fold

Compound: IL-6: interleukin 6
synergism with the LIM 2537 conditioned medium [2]: None of these factors showed any synergism

Compound: PDGF
synergism with the LIM 2537 conditioned medium [2]: None of these factors showed any synergism

Compound: rhEGF: recombinant human EGF
LIM 1215 Colony Stimulating Activity, Colonies [3]: 300 and 320
